Source: ChEMBL document CHEMBL1157205, “Design, synthesis, and biological evaluation of glycine-based molecular tongs as inhibitors of Abeta1-40 aggregation in vitro” (Bioorg Med Chem, 2008)

Columns and labels:
[1] = Inhibition of amyloid beta (1 to 40) aggregation assessed as emission of thioflavin T fluorescence at 100 uM in presence of 1,1,1,3,3,3-hexaflouro-2-propanol
[2] = Inhibition of amyloid beta (1 to 40) aggregation assessed as emission of thioflavin T fluorescence in presence of 1,1,1,3,3,3-hexaflouro-2-propanol

inhibition [1] | IC50 [2] | Structure (SMILES)
0% | – | Nc1cccc(Oc2ccc(NC(=O)CNC(=O)CNC(=O)c3cc([N+](=O)[O-])cc([N+](=O)[O-])c3)cc2)c1
4% | – | O=C(CNC(=O)CNC(=O)c1cc([N+](=O)[O-])cc([N+](=O)[O-])c1)NCC(=O)Nc1ccc(Oc2cccc(NC(=O)CNC(=O)CNC(=O)CNC(=O)c3cc([N+](=O)[O-])cc([N+](=O)[O-])c3)c2)cc1
28% | – | COc1cc(C(=O)NCC(=O)NCc2cccc(CNC(=O)CNC(=O)c3cc(OC)c(OC)c(OC)c3)c2)cc(OC)c1OC
31% | – | COc1cc(C(=O)NCC(=O)NCC(=O)NCc2cccc(CNC(=O)CNC(=O)CNC(=O)c3cc(OC)c(OC)c(OC)c3)c2)cc(OC)c1OC
23% | – | O=C(CNC(=O)CNC(=O)c1cc([N+](=O)[O-])cc([N+](=O)[O-])c1)NCc1cccc(CNC(=O)CNC(=O)CNC(=O)c2cc([N+](=O)[O-])cc([N+](=O)[O-])c2)c1
-3% | – | O=C(CNC(=O)CNC(=O)c1ccccc1)NCC(=O)Nc1ccc(Oc2cccc(NC(=O)CNC(=O)CNC(=O)CNC(=O)c3ccccc3)c2)cc1
44% | – | O=C(CNC(=O)c1cc([N+](=O)[O-])cc([N+](=O)[O-])c1)Nc1ccc(Oc2cccc(NC(=O)CNC(=O)c3cc([N+](=O)[O-])cc([N+](=O)[O-])c3)c2)cc1
5% | – | O=C(CNC(=O)CNC(=O)c1cc(O)c(O)c(O)c1)NCc1cccc(CNC(=O)CNC(=O)CNC(=O)c2cc(O)c(O)c(O)c2)c1
4% | – | O=C(CNC(=O)CNC(=O)c1cc(O)c(O)c(O)c1)NCC(=O)NCc1cccc(CNC(=O)CNC(=O)CNC(=O)CNC(=O)c2cc(O)c(O)c(O)c2)c1
7% | – | O=C(CNC(=O)c1ccccc1)Nc1ccc(Oc2cccc(NC(=O)CNC(=O)c3ccccc3)c2)cc1
-3% | – | O=C(CNC(=O)c1ccccc1)NCC(=O)Nc1ccc(Oc2cccc(NC(=O)CNC(=O)CNC(=O)c3ccccc3)c2)cc1
0% | – | COc1cc(C(=O)NCCCCC(=O)Nc2ccc(Oc3cccc(NC(=O)CCCCNC(=O)c4cc(OC)c(OC)c(OC)c4)c3)cc2)cc(OC)c1OC
3% | – | O=C(NCc1cccc(CNC(=O)c2ccccc2)c1)c1ccccc1
61% | – | O=C(NCc1cccc(CNC(=O)c2cc(O)c(O)c(O)c2)c1)c1cc(O)c(O)c(O)c1
33% | – | O=C(CNC(=O)c1cc([N+](=O)[O-])cc([N+](=O)[O-])c1)NCc1cccc(CNC(=O)CNC(=O)c2cc([N+](=O)[O-])cc([N+](=O)[O-])c2)c1
10% | – | O=C(CNC(=O)CNC(=O)c1ccccc1)NCc1cccc(CNC(=O)CNC(=O)CNC(=O)c2ccccc2)c1
17% | – | O=C(CNC(=O)C1CCCCC1)NCC(=O)Nc1ccc(Oc2cccc(NC(=O)CNC(=O)CNC(=O)C3CCCCC3)c2)cc1

inhibition [1] | IC50 [2] | Structure (SMILES)
19% | – | O=C(CNC(=O)CNC(=O)c1ccccc1)NCC(=O)NCc1cccc(CNC(=O)CNC(=O)CNC(=O)CNC(=O)c2ccccc2)c1
11% | – | COc1cc(C(=O)NCC(=O)NCC(=O)NCC(=O)O)cc(OC)c1OC
13% | – | O=C(CNC(=O)CNC(=O)c1cc([N+](=O)[O-])cc([N+](=O)[O-])c1)NCC(=O)NCc1cccc(CNC(=O)CNC(=O)CNC(=O)CNC(=O)c2cc([N+](=O)[O-])cc([N+](=O)[O-])c2)c1
20% | – | COc1cc(C(=O)NCC(=O)NCC(=O)NCC(=O)Nc2ccc(Oc3cccc(NC(=O)CNC(=O)CNC(=O)CNC(=O)c4cc(OC)c(OC)c(OC)c4)c3)cc2)cc(OC)c1OC
39% | – | O=C(CNC(=O)c1cc(O)c(O)c(O)c1)NCc1cccc(CNC(=O)CNC(=O)c2cc(O)c(O)c(O)c2)c1
15% | – | COc1cc(C(=O)NCC(=O)NCC(=O)NCC(=O)NCc2cccc(CNC(=O)CNC(=O)CNC(=O)CNC(=O)c3cc(OC)c(OC)c(OC)c3)c2)cc(OC)c1OC
79% | 1.5 µM | O=C(CNC(=O)c1cc(O)c(O)c(O)c1)Nc1ccc(Oc2cccc(NC(=O)CNC(=O)c3cc(O)c(O)c(O)c3)c2)cc1
30% | – | O=C(CNC(=O)c1cc([N+](=O)[O-])cc([N+](=O)[O-])c1)NCC(=O)Nc1ccc(Oc2cccc(NC(=O)CNC(=O)CNC(=O)c3cc([N+](=O)[O-])cc([N+](=O)[O-])c3)c2)cc1
36% | – | O=C(O)CNC(=O)CNC(=O)CNC(=O)c1cc([N+](=O)[O-])cc([N+](=O)[O-])c1
9% | – | O=C(CNC(=O)c1ccccc1)NCc1cccc(CNC(=O)CNC(=O)c2ccccc2)c1
40% | – | COc1cc(C(=O)NCC(=O)NCC(=O)Nc2ccc(Oc3cccc(NC(=O)CNC(=O)CNC(=O)c4cc(OC)c(OC)c(OC)c4)c3)cc2)cc(OC)c1OC
19% | – | COc1cc(C(=O)NCc2cccc(CNC(=O)c3cc(OC)c(OC)c(OC)c3)c2)cc(OC)c1OC
9% | – | COc1cc(C(=O)NCC(=O)Nc2ccc(Oc3cccc(NC(=O)CNC(=O)c4cc(OC)c(OC)c(OC)c4)c3)cc2)cc(OC)c1OC
80% | 28 µM | O=C(CNC(=O)c1cc(O)c(O)c(O)c1)NCC(=O)Nc1ccc(Oc2cccc(NC(=O)CNC(=O)CNC(=O)c3cc(O)c(O)c(O)c3)c2)cc1
9% | – | O=C(CNC(=O)CNC(=O)c1cc([N+](=O)[O-])cc([N+](=O)[O-])c1)NCCCNCCCNC(=O)CNC(=O)CNC(=O)c1cc([N+](=O)[O-])cc([N+](=O)[O-])c1
70% | 12 µM | O=C(Nc1ccc(Oc2cccc(NC(=O)c3cc(O)c(O)c(O)c3)c2)cc1)c1cc(O)c(O)c(O)c1

Structure (SMILES) | inhibition [1] | IC50 [2]
O=c1c(O)c(-c2ccc(O)c(O)c2)oc2cc(O)cc(O)c12 [QUERCETIN] | – | 0.8 µM
O=C(NCc1cccc(CNC(=O)c2cc([N+](=O)[O-])cc([N+](=O)[O-])c2)c1)c1cc([N+](=O)[O-])cc([N+](=O)[O-])c1 | 4% | –
